In the kinase profiling compilation of Christmann-Franck et al. (2016):

Assays:
Test in all cases: radiometric filter-binding kinase assay
LCK (mouse) = settings: compound 10.0 µM; accession and sequence are those of the human protein
MAPK10 (human) = MAPK10 (human) (UniProt P53779)
MAPK11 (human) = MAPK11 (human) (UniProt Q15759)
MAPK13 (human) = MAPK13 (human) (UniProt O15264)
MAPK8 (human) = MAPK8 (human) (UniProt P45983)
MAPKAPK5 (human) = MAPKAPK5 (human) (UniProt Q8IW41)
MARK3 (human) = MARK3 (human) (UniProt P27448)
MINK1 (human) = MINK1 (human) (UniProt Q8N4C8)
MINK1 (human), sequence (Q8N4C8 whole entry, looked up): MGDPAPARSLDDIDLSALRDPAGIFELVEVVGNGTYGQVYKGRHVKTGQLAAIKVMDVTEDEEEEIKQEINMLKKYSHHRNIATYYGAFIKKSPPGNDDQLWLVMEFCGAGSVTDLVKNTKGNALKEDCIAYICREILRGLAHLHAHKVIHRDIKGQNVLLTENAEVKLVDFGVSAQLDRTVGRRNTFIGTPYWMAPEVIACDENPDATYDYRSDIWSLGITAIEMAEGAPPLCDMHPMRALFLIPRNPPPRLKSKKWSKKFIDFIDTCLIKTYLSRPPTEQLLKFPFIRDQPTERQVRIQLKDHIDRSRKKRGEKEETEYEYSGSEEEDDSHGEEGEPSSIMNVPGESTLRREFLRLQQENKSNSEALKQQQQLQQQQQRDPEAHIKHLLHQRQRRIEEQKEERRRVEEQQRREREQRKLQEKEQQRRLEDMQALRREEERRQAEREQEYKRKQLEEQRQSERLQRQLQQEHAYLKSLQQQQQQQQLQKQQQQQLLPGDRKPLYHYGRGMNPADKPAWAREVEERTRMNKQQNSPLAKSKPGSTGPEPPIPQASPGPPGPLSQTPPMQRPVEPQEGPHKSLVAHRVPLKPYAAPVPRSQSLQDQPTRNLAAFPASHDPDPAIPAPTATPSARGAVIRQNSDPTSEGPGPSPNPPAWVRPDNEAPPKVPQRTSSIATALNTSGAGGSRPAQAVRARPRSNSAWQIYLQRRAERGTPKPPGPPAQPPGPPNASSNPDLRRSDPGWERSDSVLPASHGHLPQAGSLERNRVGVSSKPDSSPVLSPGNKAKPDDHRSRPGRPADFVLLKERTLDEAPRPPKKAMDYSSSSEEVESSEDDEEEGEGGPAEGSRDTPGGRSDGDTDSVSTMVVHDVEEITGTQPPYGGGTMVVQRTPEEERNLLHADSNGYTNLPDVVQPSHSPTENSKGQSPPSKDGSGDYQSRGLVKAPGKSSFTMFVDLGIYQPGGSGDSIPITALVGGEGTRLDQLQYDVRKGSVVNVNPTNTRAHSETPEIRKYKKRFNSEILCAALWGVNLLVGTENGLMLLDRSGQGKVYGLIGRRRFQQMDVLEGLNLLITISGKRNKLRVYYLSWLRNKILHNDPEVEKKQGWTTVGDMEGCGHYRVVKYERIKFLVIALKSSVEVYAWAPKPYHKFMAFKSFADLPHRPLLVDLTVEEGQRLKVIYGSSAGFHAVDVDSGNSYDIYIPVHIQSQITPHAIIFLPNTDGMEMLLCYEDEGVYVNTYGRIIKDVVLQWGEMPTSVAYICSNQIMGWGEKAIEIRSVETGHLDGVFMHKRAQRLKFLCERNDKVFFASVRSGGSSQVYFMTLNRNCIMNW

MKNK1 (human) = MKNK1 (human) (UniProt Q9BUB5)
MKNK1 (human), sequence (Q9BUB5 whole entry, looked up): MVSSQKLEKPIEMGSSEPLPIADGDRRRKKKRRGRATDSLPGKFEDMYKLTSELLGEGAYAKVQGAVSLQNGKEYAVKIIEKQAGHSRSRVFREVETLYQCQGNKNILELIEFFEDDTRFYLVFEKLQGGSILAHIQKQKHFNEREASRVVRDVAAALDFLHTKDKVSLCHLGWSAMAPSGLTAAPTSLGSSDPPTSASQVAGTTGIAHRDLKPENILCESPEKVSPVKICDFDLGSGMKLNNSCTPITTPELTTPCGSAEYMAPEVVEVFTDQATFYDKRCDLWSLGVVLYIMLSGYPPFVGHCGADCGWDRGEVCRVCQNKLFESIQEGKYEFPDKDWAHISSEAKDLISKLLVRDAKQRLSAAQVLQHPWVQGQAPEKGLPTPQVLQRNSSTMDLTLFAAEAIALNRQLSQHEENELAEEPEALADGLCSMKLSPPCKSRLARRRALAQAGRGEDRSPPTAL

[1] = system: PAK2 (human), Q13177 [T402E]
PHKG1 (human) = PHKG1 (human) (UniProt Q16816)
PIM3 (human) = PIM3 (human) (UniProt Q86V86)
ROCK2 (rat) = settings: accession and sequence are those of the human protein
[2] = system: SGK1 (human), O00141 [S422D]
SRPK1 (human) = SRPK1 (human) (UniProt Q96SB4)
SRPK1 (human), sequence (Q96SB4 whole entry, looked up): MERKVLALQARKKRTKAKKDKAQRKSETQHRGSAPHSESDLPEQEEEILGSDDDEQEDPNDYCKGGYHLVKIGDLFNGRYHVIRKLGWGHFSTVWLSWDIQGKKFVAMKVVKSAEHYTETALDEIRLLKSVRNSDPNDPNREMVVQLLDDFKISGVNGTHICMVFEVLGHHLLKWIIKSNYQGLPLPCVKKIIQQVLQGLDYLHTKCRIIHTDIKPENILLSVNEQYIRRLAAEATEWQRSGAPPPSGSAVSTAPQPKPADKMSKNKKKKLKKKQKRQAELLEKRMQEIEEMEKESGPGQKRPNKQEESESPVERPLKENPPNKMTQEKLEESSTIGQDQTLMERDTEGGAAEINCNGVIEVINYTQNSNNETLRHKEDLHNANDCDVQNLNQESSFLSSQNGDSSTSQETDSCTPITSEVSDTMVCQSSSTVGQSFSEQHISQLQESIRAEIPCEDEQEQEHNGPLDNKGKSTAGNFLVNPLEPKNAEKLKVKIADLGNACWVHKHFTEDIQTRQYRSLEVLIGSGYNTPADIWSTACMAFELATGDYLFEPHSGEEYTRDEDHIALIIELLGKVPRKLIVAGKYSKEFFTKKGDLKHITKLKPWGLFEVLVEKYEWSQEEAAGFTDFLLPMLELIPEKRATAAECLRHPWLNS

STK3 (human) = STK3 (human) (UniProt Q13188)
TAOK1 (human) = TAOK1 (human) (UniProt Q7L7X3)
TAOK1 (human), sequence (Q7L7X3 whole entry, looked up): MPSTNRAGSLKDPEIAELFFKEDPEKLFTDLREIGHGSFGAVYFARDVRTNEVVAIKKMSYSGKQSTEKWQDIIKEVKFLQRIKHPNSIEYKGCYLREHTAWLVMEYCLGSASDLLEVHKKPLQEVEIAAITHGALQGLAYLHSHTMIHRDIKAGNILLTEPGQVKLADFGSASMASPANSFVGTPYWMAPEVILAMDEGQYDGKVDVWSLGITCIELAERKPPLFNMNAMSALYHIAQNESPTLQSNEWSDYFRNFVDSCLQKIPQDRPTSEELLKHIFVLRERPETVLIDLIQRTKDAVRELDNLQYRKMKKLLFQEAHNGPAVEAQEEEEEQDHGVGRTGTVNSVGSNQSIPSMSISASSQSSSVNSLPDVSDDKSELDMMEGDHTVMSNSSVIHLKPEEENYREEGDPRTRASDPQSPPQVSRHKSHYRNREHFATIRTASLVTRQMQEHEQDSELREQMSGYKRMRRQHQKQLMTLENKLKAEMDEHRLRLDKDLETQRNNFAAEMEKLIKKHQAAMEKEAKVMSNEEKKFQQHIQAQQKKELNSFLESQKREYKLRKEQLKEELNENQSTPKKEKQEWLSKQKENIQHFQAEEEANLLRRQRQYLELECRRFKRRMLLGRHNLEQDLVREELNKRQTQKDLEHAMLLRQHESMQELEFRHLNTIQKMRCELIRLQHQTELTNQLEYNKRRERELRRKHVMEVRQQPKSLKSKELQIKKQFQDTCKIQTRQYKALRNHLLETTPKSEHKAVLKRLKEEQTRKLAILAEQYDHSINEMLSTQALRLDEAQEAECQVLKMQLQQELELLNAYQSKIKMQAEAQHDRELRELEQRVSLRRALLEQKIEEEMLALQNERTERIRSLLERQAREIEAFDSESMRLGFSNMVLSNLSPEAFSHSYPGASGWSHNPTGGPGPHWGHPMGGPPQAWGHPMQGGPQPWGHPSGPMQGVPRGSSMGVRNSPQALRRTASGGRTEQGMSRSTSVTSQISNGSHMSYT

TBK1 (human) = TBK1 (human) (UniProt Q9UHD2)
YES1 (human) = YES1 (human) (UniProt P07947)
YES1 (human), sequence (P07947 whole entry, looked up): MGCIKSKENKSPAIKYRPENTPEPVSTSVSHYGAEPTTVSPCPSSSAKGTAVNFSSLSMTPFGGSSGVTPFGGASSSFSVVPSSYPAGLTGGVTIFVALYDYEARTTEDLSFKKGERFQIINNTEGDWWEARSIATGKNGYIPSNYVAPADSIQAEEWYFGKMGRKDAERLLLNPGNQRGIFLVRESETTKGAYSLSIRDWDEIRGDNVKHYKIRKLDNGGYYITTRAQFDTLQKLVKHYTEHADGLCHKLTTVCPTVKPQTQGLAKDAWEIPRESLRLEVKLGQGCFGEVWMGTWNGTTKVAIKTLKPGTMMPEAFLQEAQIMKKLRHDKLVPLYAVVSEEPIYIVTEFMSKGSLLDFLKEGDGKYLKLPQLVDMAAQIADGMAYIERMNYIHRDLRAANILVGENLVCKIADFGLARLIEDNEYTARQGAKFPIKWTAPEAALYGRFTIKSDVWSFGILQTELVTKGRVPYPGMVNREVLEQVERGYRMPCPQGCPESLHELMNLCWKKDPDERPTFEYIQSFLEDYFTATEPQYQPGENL

MAPK13 (human), sequence (O15264 whole entry, looked up): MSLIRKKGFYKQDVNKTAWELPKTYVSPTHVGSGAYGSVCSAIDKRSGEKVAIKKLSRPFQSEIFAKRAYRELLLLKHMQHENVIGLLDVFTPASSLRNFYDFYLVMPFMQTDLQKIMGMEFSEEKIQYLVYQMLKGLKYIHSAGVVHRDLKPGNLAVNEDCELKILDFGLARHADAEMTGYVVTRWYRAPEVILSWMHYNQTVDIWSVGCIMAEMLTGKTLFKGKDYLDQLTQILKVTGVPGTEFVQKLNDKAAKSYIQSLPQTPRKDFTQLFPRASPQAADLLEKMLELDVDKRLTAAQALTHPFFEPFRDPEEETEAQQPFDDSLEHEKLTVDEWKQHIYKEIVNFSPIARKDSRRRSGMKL
MAPK8 (human), sequence (P45983 whole entry, looked up): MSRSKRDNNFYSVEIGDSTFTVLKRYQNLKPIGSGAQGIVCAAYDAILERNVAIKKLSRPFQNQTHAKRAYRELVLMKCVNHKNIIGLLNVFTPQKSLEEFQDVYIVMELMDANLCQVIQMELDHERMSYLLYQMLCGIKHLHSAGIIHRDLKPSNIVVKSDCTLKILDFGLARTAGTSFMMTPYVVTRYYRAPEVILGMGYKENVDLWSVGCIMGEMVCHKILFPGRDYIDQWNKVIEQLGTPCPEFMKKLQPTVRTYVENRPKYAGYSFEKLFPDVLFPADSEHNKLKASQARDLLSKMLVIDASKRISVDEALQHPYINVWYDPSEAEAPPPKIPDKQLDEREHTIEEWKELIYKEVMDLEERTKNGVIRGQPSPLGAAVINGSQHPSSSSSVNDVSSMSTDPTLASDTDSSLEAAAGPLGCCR

c1ccc2c(-c3cnn4cc(-c5ccc(N6CCNCC6)cc5)cnc34)ccnc2c1
residual activity (LCK (mouse)): 7% | residual activity (MAPK10 (human); compound 0.1 µM): 98% | residual activity (MAPK10 (human); compound 1.0 µM): 97% | residual activity (MAPK10 (human); compound 10.0 µM): 94% | residual activity (MAPK11 (human); compound 1.0 µM): 104% | residual activity (MAPK11 (human); compound 10.0 µM): 96% | residual activity (MAPK13 (human); compound 0.1 µM): 89% | residual activity (MAPK13 (human); compound 1.0 µM): 110% | residual activity (MAPK13 (human); compound 10.0 µM): 72% | residual activity (MAPK8 (human); compound 0.1 µM): 89% | residual activity (MAPK8 (human); compound 1.0 µM): 101% | residual activity (MAPK8 (human); compound 10.0 µM): 78% | residual activity (MAPKAPK5 (human); compound 0.1 µM): 89% | residual activity (MAPKAPK5 (human); compound 1.0 µM): 100% | residual activity (MAPKAPK5 (human); compound 10.0 µM): 60% | residual activity (MARK3 (human); compound 0.1 µM): 78% | residual activity (MARK3 (human); compound 1.0 µM): 34% | residual activity (MARK3 (human); compound 10.0 µM): 11% | residual activity (MINK1 (human); compound 0.1 µM): 74% | residual activity (MINK1 (human); compound 1.0 µM): 15% | residual activity (MINK1 (human); compound 10.0 µM): 4% | residual activity (MKNK1 (human); compound 0.1 µM): 82% | residual activity (MKNK1 (human); compound 1.0 µM): 63% | residual activity (MKNK1 (human); compound 10.0 µM): 39% | residual activity ([1]; compound 0.1 µM): 100% | residual activity ([1]; compound 10.0 µM): 94% | residual activity (PHKG1 (human); compound 0.1 µM): 85% | residual activity (PHKG1 (human); compound 1.0 µM): 60% | residual activity (PHKG1 (human); compound 10.0 µM): 21% | residual activity (PIM3 (human); compound 0.1 µM): 105% | residual activity (PIM3 (human); compound 1.0 µM): 103% | residual activity (PIM3 (human); compound 10.0 µM): 84% | residual activity (ROCK2 (rat); compound 0.1 µM): 98% | residual activity (ROCK2 (rat); compound 1.0 µM): 86% | residual activity (ROCK2 (rat); compound 10.0 µM): 85% | residual activity ([2]; compound 0.1 µM): 62% | residual activity ([2]; compound 1.0 µM): 79% | residual activity ([2]; compound 10.0 µM): 70% | residual activity (SRPK1 (human); compound 0.1 µM): 95% | residual activity (SRPK1 (human); compound 1.0 µM): 116% | residual activity (SRPK1 (human); compound 10.0 µM): 79% | residual activity (STK3 (human); compound 0.1 µM): 102% | residual activity (STK3 (human); compound 1.0 µM): 104% | residual activity (STK3 (human); compound 10.0 µM): 76% | residual activity (TAOK1 (human); compound 0.1 µM): 102% | residual activity (TAOK1 (human); compound 1.0 µM): 110% | residual activity (TAOK1 (human); compound 10.0 µM): 79% | residual activity (TBK1 (human); compound 0.1 µM): 74% | residual activity (TBK1 (human); compound 1.0 µM): 62% | residual activity (TBK1 (human); compound 10.0 µM): 26% | residual activity (YES1 (human); compound 0.1 µM): 73% | residual activity (YES1 (human); compound 1.0 µM): 21% | residual activity (YES1 (human); compound 10.0 µM): 7%
